# Patent US20120119081A1, “INSECT-BASED MODEL FOR PHARMACO-KINETIC STUDIES” (priority 2009, published 2012)
# Tests used:
# [1] = Locust hemolymph kinetics after injection into the hemolymph (LCMS)
# Procedure: The insects may be obtained from local suppliers or bred in house. The grasshoppers were reared under crowded conditions at 28° C. and a 12:12 dark:light photocycle and fed fresh grass and bran. Before experiments the grasshoppers were fed ecologically cultivated wheat for two weeks. Animals used are adult males (in some experiments females) between two to four weeks after adult emergence. Test compounds are administrated into the hemolymph by use of a Hamilton syringe and inserting the needle between two abdominal terga or administered intraintestinal by use of a catheter or a steel probe. At various time points after administration hemolymph samples are taken for quantitative determination of drug concentration in the hemolymph. The samples are snap-frozen and stored until analyses. Drug concentration is analysed by HPLC, LC/MSMS or other methods. In studies of drug retention various organs e.g. heart, fat bodies and brain are dissected at various times after drug administration. The tissues are washed, snap-frozen and stored until analyses. At analyses the tissues are homogenized/vortexed/sonicated and centrifuged. The drug concentration in the tissues is determined as above.
# (§1) 40 ul of an approximately 5 mg/ml solution of quinidine was injected into the hemolymph of Locusts (Locusta migratoria). The test compound was administered by using a Hamilton syringe. At 5, 15, 45, 120, and 360 minutes after administration (10 ul) hemolymph was collected from each locust with a calibrated capillary tube by puncturing the ventral membrane between the head and the thorax and immediately blown into a tube containing 40 ul aqua dest and 100 ul of acetonitrile. Each sample was centrifuged for 5 minutes (10 000 g at 4° C.) and 100 ul of the supernatants were transferred to new test tubes for LCMS analysis.
# as §1, with “The” for “40 ul of an approximately 5 mg/ml solution of quinidine was injected into the hemolymph of Locusts (Locusta migratoria). The”, “000g” for “000 g”
# as §1, with “caffeine” for “quinidine”, “000g” for “000 g”
# as §1, with “The” for “40 ul of an approximately 5 mg/ml solution of quinidine was injected into the hemolymph of Locusts (Locusta migratoria). The”, “000g” for “000 g”
# Mianserin was injected into the hemolymph of Locusts (Locusta migratoria). The administered volume was 40 ul (administered by using a Hamilton syringe) at a concentration of 8.8 mg/ml. At 5, 15 and 45 minutes after administration (2×20 ul) hemolymph was collected from the locusts with a calibrated capillary tube by puncturing the ventral membrane between the head and the thorax and immediately blown into a tube containing 60 ul aqua dest and 200 ul of acetonitrile.
# [2] = cited from earlier work; for Volume of distribution (in words): human / vertebrate, relative statement
# [3] = cited from earlier work
# [4] = Locusta migratoria, in vivo, 0.4 mg per locust (approximately)
# [5] = locust, after intrahemolymphic administration, comparison between test compounds
# [6] = Locusta migratoria, in vivo, 0.2 mg per locust (approximately)
Structure (SMILES),"concentration at 5 min [1, 4] [ng/mL]","concentration at 15 min [1, 4] [ng/mL]","concentration at 45 min [1, 4] [ng/mL]","Hemolymph elimination / clearance (in words) [1, 5]",Volume of distribution (in words) [2],also measured
O=C1CC2(CCCC2)CC(=O)N1CCCCN1CCN(c2ncccn2)CC1 [buspirone],10700,6500,3800,increased elimination similar to haloperidol,–,–
CC(C)NCC(O)COc1cccc2ccccc12 (stereo not drawn) [propranolol],–,–,–,–,much larger volume of distribution,"Half life (in words) ([2]; human, compared to atenolol): much shorter half life"
O=c1n(CCCN2CCN(c3cccc(Cl)c3)CC2)nc2ccccn12 [trazodone],–,–,–,–,–,Hemolymph elimination / clearance (in words) ([1]; in vivo): stable for 15 minutes
Cn1c(=O)c2c(ncn2C)n(C)c1=O [caffeine],29000,24000,23000,non dose dependent hemolymph clearance,much lower volume of distribution compared to propranolol,"concentration at 5 min [1, 6]: 9280 ng/mL; concentration at 15 min [1, 6]: 9010 ng/mL; concentration at 45 min [1, 6]: 8780 ng/mL; concentration at 120 min [1, 6]: 6820 ng/mL; concentration at 360 min [1, 6]: 5500 ng/mL"
CN(C)C(=O)C(CCN1CCC(O)(c2ccc(Cl)cc2)CC1)(c1ccccc1)c1ccccc1 [loperamide],5600,3000,1700,–,–,Solubility (in words) [3]: less soluble
